This is an account of results in patent publication US20240277662A1, “Administration of a Compound to Individuals with Hepatic Impairment” (Arena Pharmaceuticals, Inc., priority 2021, published 2024).

Like-named read-outs stand apart in the source and are kept apart here.

Data set [1] is described as follows: Safety and tolerability of a single oral dose of etrasimod in the hepatic impairment study. The data set is classed as in vivo, human. Conditions: single oral dose 2 mg; normal hepatic function or mild, moderate, severe hepatic impairment. An excerpt: (§1) A study evaluated the effect of hepatic impairment on the PK, safety, and tolerability of etrasimod.
An open-label, parallel-group study included 36 patients (aged 18-80 years; body mass index ≥18) with hepatic impairment, based on Child-Pugh score at screening (mild=5-6 [n=8], moderate=7-9 [n=8], severe=10-14 [n=6]), and demographically matched control patients with normal hepatic function (n=14 total). The first patient with severe hepatic impairment was enrolled after ≥2 patients with mild hepatic impairment and ≥2 patients with moderate hepatic impairment had been enrolled and followed for ≥48 hours after dosing to ensure no significant safety signals were observed. […] Safety was assessed by adverse event monitoring, vital signs, physical and neurological examination, 12-lead electrocardiogram (ECG), and clinical laboratory evaluations. Plasma concentrations of etrasimod were determined via liquid chromatography-tandem mass spectrometry (LC-MS/MS) from matrix-matched calibration curves between 0.25 to 100.0 ng/ml and 0.1 to 120.4 ng/mL for total etrasimod (bound and unbound) and unbound etrasimod, respectively. Analyte LC-MS/MS quantitation reagents included an ACE C18 column, a 20-mM ammonium acetate/acetonitrile mobile phase, a Shimadzu LC pump and autosampler, and a Sciex API6500+MS with an electrospray probe in negative multiple reaction monitoring. […]

Data set [2] concerns ulcerative colitis. Conditions: UC patients, cited from earlier work.
Data set [3] can be described thus: Open-label, parallel-group single-dose PK study of etrasimod in patients with hepatic impairment and matched controls. The data set is classed as in vivo, human. Conditions: single oral dose 2 mg; for half-life: po, 2 mg, read-out: t1/2, mean (converted).
Source text: as §1
An open-label, parallel-group study included 36 patients (aged 18-80 years; body mass index ≥18) with hepatic impairment, based on Child-Pugh score at screening (mild=5-6 [n=8], moderate=7-9 [n=8], severe=10-14 [n=6]), and demographically matched control patients with normal hepatic function (n=14 total). The first patient with severe hepatic impairment was enrolled after ≥2 patients with mild hepatic impairment and ≥2 patients with moderate hepatic impairment had been enrolled and followed for ≥48 hours after dosing to ensure no significant safety signals were observed. On Day 1, patients received a single oral dose of etrasimod 2 mg after ≥10-hour fast. PK and safety data were collected over 21 days. Safety was assessed by adverse event monitoring, vital signs, physical and neurological examination, 12-lead electrocardiogram (ECG), and clinical laboratory evaluations. Plasma concentrations of etrasimod were determined via liquid chromatography-tandem mass spectrometry (LC-MS/MS) from matrix-matched calibration curves between 0.25 to 100.0 ng/ml and 0.1 to 120.4 ng/mL for total etrasimod (bound and unbound) and unbound etrasimod, respectively. Analyte LC-MS/MS quantitation reagents included an ACE C18 column, a 20-mM ammonium acetate/acetonitrile mobile phase, a Shimadzu LC pump and autosampler, and a Sciex API6500+MS with an electrospray probe in negative multiple reaction monitoring. Plasma protein-free supernatant was collected via ultracentrifugation at 223,000 g for 4 hours. Unbound etrasimod concentrations were only measured four hours post dose and results assumed to apply to other PK collection times. For protein precipitation, acetonitrile was applied to a 1:1 mixed matrix of plasma: supernatant. The positive control was warfarin. Plasma concentrations and PK parameters were summarized by hepatic function using descriptive statistics. Unbound etrasimod PK parameters were based on total etrasimod PK parameters adjusted by percent unbound. Mean plasma concentration-time profiles were presented graphically. Phoenix WinNonlin (CertaraUSA, Inc.) was used for PK analysis.

For data set [4] the following is noted: approximately 281 adult subjects treated at various doses; cited from earlier work.

Turning to `O=C(O)C[C@H]1CCc2c1[nH]c1ccc(OCc3ccc(C4CCCC4)c(C(F)(F)F)c3)cc21` [Compound 1, (R)-2-(7-(4-cyclopentyl-3-(trifluoromethyl)benzyloxy)-1,2,3,4-tetrahydrocyclopenta[b]indol-3-yl)acetic acid], the safety findings result in data set [1] is recorded as “no clinically significant safety findings”. For the same compound, the tolerability result in data set [1] is “well tolerated”. Besides, in data set [2] (2 mg QD for 12 weeks), the “endoscopic and symptomatic improvements versus placebo” value is “clinically meaningful and statistically significant endoscopic and symptomatic improvements”. Besides, the “beneficial effects in open-label extension study” value in data set [2] (up to 46 weeks) is reported as “Sustained beneficial effects”. Further, the half-life in data set [3] (human, plasma, demographically matched normal control groups) is 43.9 to 59.5 h; in data set [3] (human, plasma, mild hepatic impairment group) it was 55.7 h; in data set [3] (human, plasma, moderate hepatic impairment group), 69.7 h; in data set [3] (human, plasma, severe hepatic impairment group) it was 76.5 h. Besides, the Tmax in data set [3] (human, fasted, across all groups, plasma, read-out: median tmax) lay within 4 to 8 h. In data set [3] (all hepatic impairment groups), the “unbound etrasimod AUC vs demographically matched normal control groups” value is “typically comparable”. For the same compound, the “mean plasma concentration-time profiles” value is recorded as “slightly higher” in data set [3] (moderate and severe hepatic impairment groups); “overlapped” in data set [3] (normal hepatic function vs mild hepatic impairment groups). In addition, in data set [3] (patients with mild, moderate or severe hepatic impairment), the “changes in etrasimod exposure” value was “relatively modest changes”. Moreover, the “unbound etrasimod Cmax, lower vs demographically matched normal control groups” value in data set [3] (progressively lower in mild, moderate and severe hepatic impairment groups) is given as “up to 42.0%”. Besides, the “peak exposure (Cmax) vs demographically matched normal control groups” value in data set [3] (total etrasimod, all hepatic impairment groups) is “comparable”. In data set [4], the safety and tolerability entry is “safe and well-tolerated”.
